Values joined by “and” are separate entries in the source; they are usually repeats but may differ in a detail not shown here. Equal entries are not always repeated. Where two headings read alike, the source gives them in different places.
Columns and labels:
[1] = Brain binding determination by brain homogenate ultrafiltration, neonatal pig; type: in vitro ADME; conditions: female, pH 7.4, 37° C., read-out: % Bound Mean (converted)
Experimental: Animals and Tissue Preparation. Plasma and brain samples from female neonatal pigs were obtained from the University of Pennsylvania and stored at −80° C. until use.
Brains were weighed and homogenized with 1:9 phosphate-buffered saline, pH 7.4 using an Omni tissue homogenizer.
Pooled homogenized brains were pre-warmed for 60 minutes in a humidified, 5% CO2 incubator maintained at 37° C. […] Spiked pooled brain homogenates were placed on a Nutator mixer in a humidified, 5% CO2 incubator at 37° C. for 60 minutes. After 60 minutes, three 800 ul aliquots of each sample were added to Centrifree centrifugal filters. The filters were subjected to centrifugation at 2900 rpm for 10 minutes at 37 C. Aliquots of residual brain homogenate and ultrafiltrate were collected for bioanalysis.
For each tissue matrix, standard curves were created and LLOQ/ULOQ concentrations determined.

[2] = Pharmacokinetics of MRS4322 following intravenous administration to neonatal pigs; type: in vivo
Experimental: Animals. Four-week old female neonatal pigs weighing approximately 7.5 Kg were used for this study, supplied by the Department of Bioengineering, University of Pennsylvania (Philadelphia, PA). Animals were equipped with brain microdialysis probes to obtain brain extracellular fluid samples for drug concentration determinations during the study. All studies were conducted under approved University of Pennsylvania IACUC protocols.
Drug Administration: MRS4322 was solubilized in DMSO and then diluted in saline to prepare dosing solution. A 10 mL volume of dosing solution was administered by intravenous bolus administration to each neonatal pig (n=3).
Tissue Sampling: Blood samples were obtained at 0.25, 0.5, 1, 2, 4 and 6 hours post-dose. Brain extracellular fluid samples were obtained from implanted microdialysis probes at 1, 4 and 6 hours post-dose. Whole blood (1 mL) was obtained at each timepoint and placed in vacutainer tubes containing heparin and immediately centrifuged for preparation of plasma; plasma was stored at −80° C. Brain extracellular and cerebrospinal fluid samples were stored at −80° C. At the time of euthanasia (6 hours post-dose), cerebrospinal fluid samples were obtained and frozen, while brain samples from the cortex and hippocampus were obtained by decapitation, rinsed in ice-cold phosphate-buffered saline and weighed. Brain samples were then immediately flash-frozen in liquid nitrogen and stored at −80° C.
The following table outlines the LC and MS/MS conditions employed:
The calibration ranges for all of the MRS4322 matrice's standard curves were 0.1-1000 ng/mL.
For bioanalysis of brain concentrations of MRS4322, brain samples were homogenized in ice-cold phosphate-buffered saline in a 4× dilution. Aliquots of the resulting diluted brain homogenate were treated with acetonitrile and analyzed by LC-MS/MS.

[3] = Previous/initial in vivo pharmacokinetic assessments of MRS2365 in mice
[4] = plasma, MRS4322 0.2 mg/kg IV, individual animals, 0.2 mg/kg

SMILES: CSc1nc(N)c2ncn([C@H]3[C@H](O)[C@H](O)[C@]4(CO)C[C@H]34)c2n1 [MRS4322]
- fraction unbound at 60 min, 1 uM [1]: 0.253
- Brain Concentration by Subject ([2]; Brain Cortex, MRS4322 0.2 mg/kg IV, 6 h, individual subjects, 0.2 mg/kg): 3.80 ng/mL and 6.15 ng/mL
- Brain Concentration by Subject ([2]; Brain Hippocampus, MRS4322 0.2 mg/kg IV, 6 h, individual subjects, 0.2 mg/kg): 4.56 ng/mL and 5.39 ng/mL
- Cerebro-Spinal Fluid Concentration by Subject ([2]; CSF, MRS4322 0.2 mg/kg IV, 6 h, individual subjects, 0.2 mg/kg): 1.04 ng/mL and 1.75 ng/mL
- Plasma Concentration by Subject ([2]; MRS4322 0.2 mg/kg IV, 0 h, individual subjects): BLQ
- Plasma Concentration Mean ([2]; MRS4322 0.2 mg/kg IV, 0 h, mean): BLQ
- Plasma Concentration by Subject ([2]; MRS4322 0.2 mg/kg IV, 0.25 h, individual subjects, 0.2 mg/kg): 120 ng/mL and 163 ng/mL
- Plasma Concentration by Subject ([2]; MRS4322 0.2 mg/kg IV, 0.5 h, individual subjects, 0.2 mg/kg): 54.1 ng/mL and 98.7 ng/mL
- Plasma Concentration by Subject ([2]; MRS4322 0.2 mg/kg IV, 1 h, individual subjects, 0.2 mg/kg): 51.4 ng/mL and 63.0 ng/mL
- Plasma Concentration by Subject ([2]; MRS4322 0.2 mg/kg IV, 2 h, individual subjects, 0.2 mg/kg): 27.2 ng/mL and 18.7 ng/mL and 46.8 ng/mL
- Plasma Concentration by Subject ([2]; MRS4322 0.2 mg/kg IV, 4 h, individual subjects, 0.2 mg/kg): 21.9 ng/mL and 28.7 ng/mL
- Plasma Concentration by Subject ([2]; MRS4322 0.2 mg/kg IV, 6 h, individual subjects, 0.2 mg/kg): 15.3 ng/mL and 9.08 ng/mL and 20.8 ng/mL
- Extracellular Fluid Concentration by Subject ([2]; brain ECF (microdialysis), MRS4322 0.2 mg/kg IV, 1 h, individual subjects, 0.2 mg/kg): 1.55 ng/mL and 0.641 ng/mL and 1.70 ng/mL
- Extracellular Fluid Concentration by Subject ([2]; brain ECF, MRS4322 0.2 mg/kg IV, 4 h, individual subjects, 0.2 mg/kg): 0.693 ng/mL and 0.579 ng/mL and 1.36 ng/mL
- Extracellular Fluid Concentration by Subject ([2]; brain ECF, MRS4322 0.2 mg/kg IV, 6 h, individual subjects, 0.2 mg/kg): 0.602 ng/mL and 0.459 ng/mL and 1.08 ng/mL
- Kp at 6 h ([2]; female, pig, 0.2 mg/kg, IV, 6 hours post-dose, based on mean concentrations in plasma and brain, read-out: brain/plasma ratio of total drug): ~0.3
- concentration at 6 h ([2]; female, pig, brain cortex, iv, 0.2 mg/kg, Brain Cortex, MRS4322 0.2 mg/kg IV, 6 h, individual subjects, read-out: Brain Concentration by Subject): 5.34 ng/mL
- concentration at 6 h ([2]; female, pig, brain cortex, iv, 0.2 mg/kg, Brain Cortex, MRS4322 0.2 mg/kg IV, 6 h, mean, read-out: Brain Concentration Mean): 5.1 ng/mL
- concentration at 1 h ([2]; female, pig, brain extracellular fluid, iv, 0.2 mg/kg, brain ECF, MRS4322 0.2 mg/kg IV, 1 h, mean, read-out: Extracellular Fluid Concentration Mean): 1.3 ng/mL
- concentration at 4 h ([2]; female, pig, brain extracellular fluid, iv, 0.2 mg/kg, brain ECF, MRS4322 0.2 mg/kg IV, 4 h, mean, read-out: Extracellular Fluid Concentration Mean): 0.941 ng/mL
- concentration at 6 h ([2]; female, pig, brain extracellular fluid, iv, 0.2 mg/kg, brain ECF, MRS4322 0.2 mg/kg IV, 6 h, mean, read-out: Extracellular Fluid Concentration Mean): 0.714 ng/mL
- concentration at 6 h ([2]; female, pig, brain hippocampus, iv, 0.2 mg/kg, Brain Hippocampus, MRS4322 0.2 mg/kg IV, 6 h, individual subjects, read-out: Brain Concentration by Subject): 6.47 ng/mL
- concentration at 6 h ([2]; female, pig, brain hippocampus, iv, 0.2 mg/kg, Brain Hippocampus, MRS4322 0.2 mg/kg IV, 6 h, mean, read-out: Brain Concentration Mean): 5.47 ng/mL
- concentration at 6 h ([2]; female, pig, cerebrospinal fluid, iv, 0.2 mg/kg, CSF, MRS4322 0.2 mg/kg IV, 6 h, individual subjects, read-out: Cerebro-Spinal Fluid Concentration by Subject): 1.37 ng/mL
- concentration at 6 h ([2]; female, pig, cerebrospinal fluid, iv, 0.2 mg/kg, CSF, MRS4322 0.2 mg/kg IV, 6 h, mean, read-out: Cerebro-Spinal Fluid Concentration Mean): 1.39 ng/mL
- Tmax ([2]; female, pig, plasma, MRS4322 0.2 mg/kg IV, mean, read-out: Tmax Mean): 15 min
- concentration at 0.25 h ([2]; female, pig, plasma, iv, 0.2 mg/kg, MRS4322 0.2 mg/kg IV, 0.25 h, individual subjects, read-out: Plasma Concentration by Subject): 133 ng/mL
- concentration at 0.25 h ([2]; female, pig, plasma, iv, 0.2 mg/kg, MRS4322 0.2 mg/kg IV, 0.25 h, mean, read-out: Plasma Concentration Mean): 139 ng/mL
- concentration at 0.5 h ([2]; female, pig, plasma, iv, 0.2 mg/kg, MRS4322 0.2 mg/kg IV, 0.5 h, individual subjects, read-out: Plasma Concentration by Subject): 85.3 ng/mL
- concentration at 0.5 h ([2]; female, pig, plasma, iv, 0.2 mg/kg, MRS4322 0.2 mg/kg IV, 0.5 h, mean, read-out: Plasma Concentration Mean): 79.4 ng/mL
- concentration at 1 h ([2]; female, pig, plasma, iv, 0.2 mg/kg, MRS4322 0.2 mg/kg IV, 1 h, individual subjects, read-out: Plasma Concentration by Subject): 58.9 ng/mL
- concentration at 1 h ([2]; female, pig, plasma, iv, 0.2 mg/kg, MRS4322 0.2 mg/kg IV, 1 h, mean, read-out: Plasma Concentration Mean): 57.8 ng/mL
- concentration at 2 h ([2]; female, pig, plasma, iv, 0.2 mg/kg, MRS4322 0.2 mg/kg IV, 2 h, mean): 30.9 ng/mL
- concentration at 4 h ([2]; female, pig, plasma, iv, 0.2 mg/kg, MRS4322 0.2 mg/kg IV, 4 h, individual subjects, read-out: Plasma Concentration by Subject): 23.3 ng/mL
- concentration at 4 h ([2]; female, pig, plasma, iv, 0.2 mg/kg, MRS4322 0.2 mg/kg IV, 4 h, mean, read-out: Plasma Concentration Mean): 24.6 ng/mL
- concentration at 6 h ([2]; female, pig, plasma, iv, 0.2 mg/kg, MRS4322 0.2 mg/kg IV, 6 h, mean, read-out: Plasma Concentration Mean): 15.1 ng/mL
- half-life ([2]; female, pig, plasma, iv, 0.2 mg/kg, MRS4322 0.2 mg/kg IV, mean): 205 min
- AUC(0-inf) ([2]; female, pig, plasma, iv, 0.2 mg/kg, plasma, MRS4322 0.2 mg/kg IV, individual animals, read-out: AUCINF): 344 ng·h/mL
- AUC(0-t) ([2]; female, pig, plasma, iv, 0.2 mg/kg, plasma, MRS4322 0.2 mg/kg IV, individual animals, read-out: AUClast): 238 ng·h/mL
- C0 ([2]; female, pig, plasma, iv, 0.2 mg/kg, plasma, MRS4322 0.2 mg/kg IV, individual animals, read-out: C0): 207 ng/mL
- clearance ([2]; female, pig, plasma, iv, 0.2 mg/kg, plasma, MRS4322 0.2 mg/kg IV, individual animals, read-out: Cl): 9.68 mL/min/kg
- Cmax ([2]; female, pig, plasma, iv, 0.2 mg/kg, plasma, MRS4322 0.2 mg/kg IV, individual animals, read-out: Cmax): 133 ng/mL
- Vd ([2]; female, pig, plasma, iv, 0.2 mg/kg, plasma, MRS4322 0.2 mg/kg IV, individual animals, read-out: Vz): 4.04 L/kg
- AUC(0-inf) ([2]; female, pig, plasma, iv, 0.2 mg/kg, plasma, MRS4322 0.2 mg/kg IV, mean, read-out: AUCINF Mean): 326 ng·h/mL
- AUC(0-t) ([2]; female, pig, plasma, iv, 0.2 mg/kg, plasma, MRS4322 0.2 mg/kg IV, mean, read-out: AUClast Mean): 249 ng·h/mL
- C0 ([2]; female, pig, plasma, iv, 0.2 mg/kg, plasma, MRS4322 0.2 mg/kg IV, mean, read-out: C0 Mean): 248 ng/mL
- clearance ([2]; female, pig, plasma, iv, 0.2 mg/kg, plasma, MRS4322 0.2 mg/kg IV, mean, read-out: Cl Mean): 10.8 mL/min/kg
- Cmax ([2]; female, pig, plasma, iv, 0.2 mg/kg, plasma, MRS4322 0.2 mg/kg IV, mean, read-out: Cmax Mean): 139 ng/mL
- Vd ([2]; female, pig, plasma, iv, 0.2 mg/kg, plasma, MRS4322 0.2 mg/kg IV, mean, read-out: Vz Mean): 3.05 L/kg
- Tmax ([2]; plasma, MRS4322 0.2 mg/kg IV, individual animals): 15 min
- AUCINF [2, 4]: 233 ng·h/mL and 401 ng·h/mL
- AUClast [2, 4]: 203 ng·h/mL and 307 ng·h/mL
- C0 [2, 4]: 286 ng/mL and 289 ng/mL
- Cl [2, 4]: 14.3 mL/min/kg and 8.31 mL/min/kg
- Cmax [2, 4]: 120 ng/mL and 163 ng/mL
- Half Life [2, 4]: 4.82 h and 2.31 h and 3.13 h
- Vz [2, 4]: 2.86 L/kg and 2.25 L/kg

SMILES: CSc1nc(N)c2ncn([C@H]3[C@H](O)[C@H](O)[C@]4(COP(=O)(O)OP(=O)(O)O)C[C@H]34)c2n1 [MRS2365]
- circulating and brain concentrations of MRS2365 ([3]; following intraperitoneal or intravenous administration, previous studies): no detectable
- clearance in vivo ([3]; mice, heparin as blood anticoagulant for plasma preparation): rapidly cleared at a rate approximating cardiac output

— patent publication US12239654B2, “Compounds and methods for treating neurological and cardiovascular conditions” (Astrocyte Pharmaceuticals, Inc., priority 2016, dated 2025)
